The values below come from patent publication US20250270648A1, “MOLECULAR SIGNATURE FOR ASSESSING THE RESPONSIVENESS OF CANCER TO MITOCHONDRIA-TARGETED ANTIOXIDANTS” (UNIVERSITÉ CATHOLIQUE DE LOUVAIN, priority 2021, published 2025).

Assay [1] concerns SkBr3 cells. As to the kind of experiment: Cell invasion, Boyden chamber. It is filed as cell-based, human. Particulars: MitoQ 100 nM, 48 h. As to the method:
(§1) Cell chemotaxis was assayed in a 48-well micro-chemotaxis chamber (Neuroprobe® AP48) with polycarbonate porous membrane (8-μm diameter, Neuroprobe® PFB8) coated with 5 μg/mL of fibronectin, according to manufacturer's instructions. Briefly, MDA-MB-231 (20,000 cells/well), SkBr3 (40,000 cells/well) or MDA-MB-436 (80,000 cells/well) cells were seeded in the upper compartment in culture media deprived of FBS, and 0.2% (v/v) FBS-containing medium (for MDA-MB-231 and MDA-MB-436 cells) or 10% (v/v) FBS-containing medium supplemented with 10 ng/mL of human EGF (PrepoTech®, cat #AF-100-15) (for SkBr3 cells) were used as chemo-attractants. Cells were allowed to invade through the membrane overnight. Membranes were then washed with PBS, fixed in methanol, and stained with crystal violet (0.23% v/v). Pictures were acquired under an Axiovert™ 40 CFL microscope (Zeiss®) equipped with a MRC camera (Zeiss®). Quantification was performed using the Image J software.

The test system of assay [2] is MDA-MB-436 cells. Nature of the assay: Cell invasion, Boyden chamber. It is filed as cell-based, human. Particulars: MitoQ 100 nM, 48 h. As to the method:
as §1

Assay [3] deals with MDA-MB-231 cells. Nature of the assay: Cell invasion, Boyden chamber. It counts as cell-based, human. Particulars: MitoQ 100 nM, 48 h. As to the method: as §1
A further assay concerns MCF7 cells. Nature of the assay: Migration towards 0.5% serum, chemotaxis chamber. It counts as cell-based, human. The following applies: 0.1 μg/mL DXR + 100 nM MitoQ. As to the method:
(§2) Previous to migration and invasion assays, cells were pretreated with the indicated amounts of drugs for 16 h, and left to recover for 6 h in full culture medium. Migration assays were performed in a NeuroProbe® standard 48-well chemotaxis chamber according to manufacturer's instructions. Briefly, the bottom chamber was filled with DMEM containing 0.5% serum as a chemo-attractant. Fifty thousand cells were seeded in the upper chamber in the same medium but without serum ±MitoQ where indicated, and allowed to migrate overnight through an 8-μm pore-size polycarbonate membrane. A similar stimulation protocol was used for invasion assays, with the difference of using Matrigel-coated transwells (Corning®). With MCF7 cells, membranes were previously incubated for 30 min with a solution of Vitronectin 10 μg/ml (Sigma-Aldrich®, #SRP3186). Migrated/invaded cells were fixed and stained with 100 μl of a 0.23% crystal violet solution (Sigma-Aldrich®, #C0775) for 10 min before counting on a SpectraMax™ i3 spectrophotometer equipped with a MiniMax imaging cytometer, using the SoftMax Pro software. Data were normalized to vehicle-treated cells (control).

The subject of assay [4] is MDA-MB-231 cells. As to the kind of experiment: Migration towards 0.5% serum, chemotaxis chamber. It counts as cell-based, human. Particulars: indicated doses of cisplatin + 100 nM MitoQ. As to the method: as §2
In assay [5] the test system is SkBr3 cells. As to the kind of experiment: Cell migration, scratch test. It is filed as cell-based, human. Particulars: MitoQ 100 nM, 48 h. As to the method: (§3) A scratch test was performed on cells treated ±MitoQ for 48 h (Tamura et al.; Science, 1998; 280, 1614-1617). For each condition and each time point, pictures were taken in the same field, and the distance between the wound edges was analyzed using the Image J software (Java®). The percentage of scratch closure was calculated in respect to wounded area at 0 h.

Assay [6] deals with MDA-MB-436 cells. As to the kind of experiment: Cell migration, scratch test. It is filed as cell-based, human. The following applies: MitoQ 100 nM, 48 h. As to the method: as §3
For assay [7], the system named is MDA-MB-231 cells. As to the kind of experiment: Cell migration, scratch test. It counts as cell-based, human. The following applies: MitoQ 100 nM, 48 h. As to the method:
as §3

For another assay, the system named is 4T1 cells. As to the kind of experiment: Migration towards 0.5% serum, chemotaxis chamber. It is filed as cell-based, mouse. As to the method: as §2
Assay [8] has as its system MDA-MB-231 human breast cancer cells. As to the kind of experiment: Mitochondrial superoxide, EPR with MitoTEMPO-H ±PEG-SOD2. The following applies: MitoQ 100 nM, 48 h. It is filed as cell-based. As to the method: Mitochondrial superoxide levels were determined using electron paramagnetic resonance (EPR) with MitoTEMPO-H as a specific mitochondrial superoxide probe ±PEG-SOD2 to specifically assign signals to mitochondrial superoxide. EPR measurements were performed using a Bruker EMX-Plus spectrometer, operating in X-band (9.85 GHz) and equipped with a PremiumX ultra low noise microwave bridge and a SHQ high sensitivity resonator. Typical settings were: microwave power: 20 mW; attenuation: 10 dB; modulation frequency: 100 kHz; modulation amplitude: 0.1 mT; time constant: 20.48 ms; conversion time: 22.58 ms; sweep width: 0.15 mT. Briefly, MDA-MB-231, SkBr3, MCF10A or MDA-MB-436 cells were treated ±MitoQ for 48 h, harvested and resuspended in PBS at 2×10^6 cells/mL. The experimental mixture was prepared with cell suspension, 1 mM DTPA and 150 μM MitoTEMPO-H. It was then aspirated into a gas-permeable polytetrafluoroethylene (PTFE) tubing that was placed in a quartz tube opened at both ends. The tube was directly inserted inside the EPR cavity that was heated at 310° K with air during all experiments. […] Net superoxide production was calculated by subtracting the double integration values of the […] with PEG-SOD2 to the control value at timepoint 15 min.

Consider `COC1=C(OC)C(=O)C(CCCCCCCCCC[P+](c2ccccc2)(c2ccccc2)c2ccccc2)=C(C)C1=O` [MitoQ], for which the invasive capability entry in the assay on SkBr3 cells [1] and in the assay with MDA-MB-231 cells [3] was “highly significantly reduced” in each case. Further, in the assay with MDA-MB-436 cells [2], the cell invasion entry was “inhibited”. Moreover, the DXR-stimulated cell migration entry with MCF7 cells and with 4T1 cells (0.1 μg/mL DXR + 100 nM MitoQ) was “inhibited” each time. Further, the “breast cancer cell migration in the presence of cisplatin” value in the assay on MDA-MB-231 cells [4] and in the assay with 4T1 cells (indicated doses of cisplatin + 100 nM MitoQ) was “repressed” each time. Further, the migratory capability result with SkBr3 cells [5] and in the assay with MDA-MB-231 cells [7] was “highly significantly reduced” throughout. Also, the cell migration result with MDA-MB-436 cells [6] is “inhibited”. For the same compound, the “mitochondrial superoxide and mitochondrial H2O2 production” value in assay [8] is reported as “lower”.
